Test results reported in patent publication EP4817688A2, “DEGRADING PKCß1 TO TREAT CANCER” (Mayo Foundation for Medical Education and Research, priority 2020, dated 2022).
pIC50: −log10 of the molar value. Values joined by “and” are separate entries in the source; they are usually repeats but may differ in a detail not shown here. Identical values can stand only once.

Legend:
[1] = pharmacokinetics in female CD1 mice, plasma by UPLC-MS/MS; format: in vivo; conditions: plasma
Protocol: ENDX PROTAC 7 and PROTAC 9 pharmacokinetics were characterized in female CD1 mice. Blood samples were collected from mice anesthetized under isoflurane via retro-orbital eye bleed into tubes containing EDTA and immediately chilled on ice. NaF was added to the EDTA collection tubes to help stabilize the drug in whole blood for the second IV and IP studies with ENDX PROTAC 9, and for the IV and oral studies with PROTAC 7. Plasma and red blood cells were separated immediately by centrifugation in a refrigerated centrifuge at 4°C. The plasma was transferred to a separate tube and immediately frozen at -20°C.
For IV dosing, ENDX PROTAC 9 was dissolved in 10% DMSO, 10% PEG 400, and 80% normal saline for a final concentration of 0.2 mg/mL ENDX PROTAC 9 for the 1 mg/kg IV doses. ENDX PROAC 7 was dissolved in 15% DMSO, 9.44% PEG400, and 55% normal saline for a final concentration of 0.19 mg/mL for the 1 mg/kg IV doses. Blood samples (3 mice per time-point) were collected 5 minutes, 15 minutes, 0.5 hour, 1 hour, 2 hours, 4 hours, 8 hours, and 24 hours after administration of the ENDX PROTAC. […] For oral dosing, ENDX PROTAC 9 (10 mg/kg) and ENDX PROTAC 7 (10 mg/kg) were suspended in 1 mM ascorbic acid:PEG400, 1:1 v/v for a final concentration of 1.0 mg/mL ENDX PROTAC. Blood samples (three mice per time-point) were collected 15 minutes, 0.5 hour, 1 hour, 2 hours, 4 hours, 6 hours, 8 hours, and 24 hours after administering the ENDX PROTAC. For I.P. dosing, ENDX PROTAC 9 (4 mg/kg) was prepared in 1 mM ascorbic acid:PEG400, 1:1 v/v for a final concentration of 0.4 mg/mL ENDX PROTAC 9. Blood samples (three mice per time-point) were collected 15 minutes, 0.5 hour, 1 hour, 2 hours, 4 hours, 6 hours, 8 hours, and 24 hours after administration. Plasma concentrations of ENDX PROTAC 7 and 9 were measured using UPLC-MS/MS.

[2] = test system: Rb-proficient MDAMB231 and Rb-deficient BT549 and MDAMB436 cells; assay: crystal violet (CV) proliferation assay, TNBC cells (text statements covering several lines); format: cell-based; conditions: MDAMB231 and BT549 cells (FIG. 4A and TABLE 1)
Protocol: (§1) Cell proliferation rates were determined using crystal violet assays. One thousand cells per well were plated in 96 well tissue culture plates and treated the following day with a bifunctional compound or control for 7 days in replicates of 8. Cells were fixed with 25% glutaraldehyde for 10 minutes with shaking, washed 5 times with distilled water, stained with a 1% crystal violet solution (solubilized in 25% methanol) for 10 minutes, washed again 5 times and allowed to dry. De-staining was performed using […] sodium citrate in 50% ethanol followed by quantification using a 96 well spectrophotometer set at an absorbance of 550 nm.

[3] = test system: MDAMB231 cells; assay: crystal violet (CV) proliferation assay, MDAMB231; format: cell-based; conditions: Homo sapiens, MDA-MB-231, MDAMB231 (PKCβ1^high, Rb^positive) 2000 cells
Protocol: as §1

[4] = test system: MDAH-2774 cells; assay: crystal violet (CV) proliferation assay, MDAH-2774; format: cell-based; conditions: Homo sapiens; MDAH-2774 (PKCβ1^high) 1000 cells/well; read-out: Approximate IC50
Protocol: as §1
Based on the potent anti-proliferative activity of ENDX-PROTACs TC-Pr-006, TC-Pr-007, TC-Pr -008, and TC-Pr -009 in TNBC cells, the efficacy of these compounds for inhibiting the growth of ovarian cancer cells was tested. This analysis utilized KURAMOCHI cells, which represent the high-grade serous subtype (the most malignant form that accounts for 70% of all ovarian cancers and associates with poor clinical outcome) and MDAH-2774 cells, which represent endometrioid ovarian cancer and accounts for 20% of all ovarian cancer. PKCβ1 was confirmed to be expressed in both ovarian cancer cell line models, with MDAH-2774 cells expressing higher amounts of PKCβ1 compared to KURAMOCHI cells (FIG. 5A). […]

[5] = test system: BT549 cells; assay: crystal violet (CV) proliferation assay, BT549; format: cell-based; conditions: Homo sapiens, BT-549, BT549 (PKCβ1^high, Rb^regative) 2000 cells
Protocol: as §1

Concentration ENDX PROTAC 9 ([1]; IV 1 mg/kg, EDTA without NaF, 1440 minutes, individual mice, listed as ENDX PROTAC 9, 1 mg/kg): BLD and 0 ng/ml (2×)
Concentration ENDX PROTAC 9 ([1]; IV 1 mg/kg, all data (both IV studies), 30 minutes, listed as ENDX PROTAC 9, 1 mg/kg): 1.662 ng/mL
Concentration ENDX PROTAC 9 ([1]; IV 1 mg/kg, all data (both IV studies), 120 minutes, listed as ENDX PROTAC 9, 1 mg/kg): BLD
Concentration ENDX PROTAC 9 ([1]; IV 1 mg/kg, all data (both IV studies), 240 minutes, listed as ENDX PROTAC 9, 1 mg/kg): BLD
Concentration ENDX PROTAC 9 ([1]; IV 1 mg/kg, second study (NaF), 15 minutes, individual mice, listed as ENDX PROTAC 9, 1 mg/kg): 8.2 ng/mL and 33.8 ng/mL and 10.72 ng/mL
Concentration ENDX PROTAC 9 ([1]; IV 1 mg/kg, second study (NaF), 240 minutes, individual mice, listed as ENDX PROTAC 9, 1 mg/kg): 0.19 ng/mL and 1.11 ng/mL and 0.39 ng/mL
Concentration ENDX PROTAC 9 ([1]; PO 10 mg/kg, 15 minutes, individual mice, listed as ENDX PROTAC 9, 10 mg/kg): 6.95 ng/mL and 4.77 ng/mL and 2.11 ng/mL
Concentration ENDX PROTAC 9 ([1]; PO 10 mg/kg, 30 minutes, individual mice, listed as ENDX PROTAC 9, 10 mg/kg): 0.58 ng/mL and 1.05 ng/mL
Concentration ENDX PROTAC 9 ([1]; PO 10 mg/kg, 60 minutes, individual mice, listed as ENDX PROTAC 9, 10 mg/kg): 6.78 ng/mL and 15.8 ng/mL and 10.6 ng/mL
Concentration ENDX PROTAC 9 ([1]; PO 10 mg/kg, 120 minutes, individual mice, listed as ENDX PROTAC 9, 10 mg/kg): 0.25 ng/ml and BLD* and 0.55 ng/ml
Concentration ENDX PROTAC 9 ([1]; PO 10 mg/kg, 240 minutes, individual mice, listed as ENDX PROTAC 9, 10 mg/kg): 0.9 ng/mL and 0.16 ng/mL and 0.14 ng/mL
Concentration ENDX PROTAC 9 ([1]; PO 10 mg/kg, 360 minutes, individual mice, listed as ENDX PROTAC 9, 10 mg/kg): 2.61 ng/ml and BLD and 0.05 ng/ml
Concentration ENDX PROTAC 9 ([1]; PO 10 mg/kg, 480 minutes, individual mice, listed as ENDX PROTAC 9, 10 mg/kg): BLD
Concentration ENDX PROTAC 9 ([1]; PO 10 mg/kg, 1440 minutes, individual mice): BLD
Concentration ENDX PROTAC 9 ([1]; TABLE 7, titled PO pk (10 mg/kg), 15 minutes, individual mice, listed as ENDX PROTAC 9, 10 mg/kg): 111.19 ng/mL and 133.09 ng/mL
Concentration ENDX PROTAC 9 ([1]; TABLE 7, titled PO pk (10 mg/kg), 30 minutes, individual mice, listed as ENDX PROTAC 9, 10 mg/kg): 156.42 ng/mL and 83.56 ng/mL
Concentration ENDX PROTAC 9 ([1]; TABLE 7, titled PO pk (10 mg/kg), 60 minutes, individual mice, listed as ENDX PROTAC 9, 10 mg/kg): 141.51 ng/mL and 93.93 ng/mL
Concentration ENDX PROTAC 9 ([1]; TABLE 7, titled PO pk (10 mg/kg), 360 minutes, individual mice, listed as ENDX PROTAC 9, 10 mg/kg): 1.64 ng/mL and 0.75 ng/mL and 2.62 ng/mL
Concentration ENDX PROTAC 9 ([1]; TABLE 7, titled PO pk (10 mg/kg), 480 minutes, individual mice, listed as ENDX PROTAC 9, 10 mg/kg): 7.23 ng/mL and 1.2 ng/mL
Concentration ENDX PROTAC 9 ([1]; TABLE 7, titled PO pk (10 mg/kg), 1440 minutes, individual mice, listed as ENDX PROTAC 9, 10 mg/kg): 1.01 ng/mL and 0.33 ng/mL and 0.12 ng/mL
pIC50 [3]: 6.88
pIC50 [5]: 7.17
SMILES: CCC(=C(c1ccc(O)cc1)c1ccc(OCCN(C)C(=O)COCCOCCNC(=O)Cc2ccc3c(c2)CN(C2CCC(=O)NC2=O)C3=O)cc1)c1ccccc1 (stereo not shown) [TC-Pr-009, 2-[2-(2-2-[2-(2,6-dioxopiperidin-3-yl)-1-oxo-2,3-dihydro-1H-isoindol-5-yl]acetamidoethoxy)ethoxy]-N-(2-4-[1-(4-hydroxyphenyl)-2-phenylbut-1-en-1-yl]phenoxyethyl)-N-methylacetamide]
Concentration ENDX PROTAC 9 ([1]; IV 1 mg/kg, second study (NaF), 5 minutes, individual mice, listed as ENDX PROTAC 9, 1 mg/kg): 86.31 ng/mL and 91.46 ng/mL and 34.87 ng/mL
Concentration ENDX PROTAC 9 ([1]; IV 1 mg/kg, second study (NaF), 60 minutes, individual mice, listed as ENDX PROTAC 9, 1 mg/kg): 1.18 ng/mL and 1.26 ng/mL and 12.64 ng/mL
Concentration ENDX PROTAC 9 ([1]; TABLE 7, titled PO pk (10 mg/kg), 120 minutes, individual mice, listed as ENDX PROTAC 9, 10 mg/kg): 60.32 ng/mL and 106.7 ng/mL and 40.51 ng/mL
Concentration ENDX PROTAC 9 ([1]; TABLE 7, titled PO pk (10 mg/kg), 240 minutes, individual mice, listed as ENDX PROTAC 9, 10 mg/kg): 17.29 ng/mL and 5.09 ng/mL and 30.55 ng/mL
apoptosis [2]: induced apoptosis
pIC50 [4]: 5.00 to 6.00
